Legend:
Assay type in all cases: biochemical
CymA [1] = biological target: T1, CymA (Shewanella oneidensis, UniProt Q8E8S0); assay: cyclic voltammetry, dithionite as reductant; conditions: 1 mM dithionite, pH 7.4, 21 °C, no Fcc3
T1 construct: full-length recombinant tetraheme CymA (24 kDa), isolated from MR-1, reconstituted in POPC/cardiolipin membrane, no Fcc3
T1 sequence (Q8E8S0 1-187): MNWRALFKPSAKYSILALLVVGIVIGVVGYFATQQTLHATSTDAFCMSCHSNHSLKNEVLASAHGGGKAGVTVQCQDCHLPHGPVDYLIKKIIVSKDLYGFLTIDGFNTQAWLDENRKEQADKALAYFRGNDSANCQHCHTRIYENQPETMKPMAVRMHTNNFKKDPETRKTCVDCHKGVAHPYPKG

CymA-Fcc3 complex [2] = biological target: T2, CymA-Fcc3 complex (Shewanella oneidensis, UniProt Q8E8S0); assay: cyclic voltammetry, membrane-modified gold electrode, MQ-7 content varied; conditions: fumarate 1 mM as acceptor, pH 7.4, 21 °C; MQ-7 in membrane as % (w/w); Michaelis-Menten fit, constant not given
T2 construct: isolated from MR-1; with Fumarate reductase (cytochrome), flavocytochrome c3
T2 sequence (Q8E8S0 1-187): T1 sequence (Q8E8S0 1-187)
T2 sequence (P83223 26-596 partner): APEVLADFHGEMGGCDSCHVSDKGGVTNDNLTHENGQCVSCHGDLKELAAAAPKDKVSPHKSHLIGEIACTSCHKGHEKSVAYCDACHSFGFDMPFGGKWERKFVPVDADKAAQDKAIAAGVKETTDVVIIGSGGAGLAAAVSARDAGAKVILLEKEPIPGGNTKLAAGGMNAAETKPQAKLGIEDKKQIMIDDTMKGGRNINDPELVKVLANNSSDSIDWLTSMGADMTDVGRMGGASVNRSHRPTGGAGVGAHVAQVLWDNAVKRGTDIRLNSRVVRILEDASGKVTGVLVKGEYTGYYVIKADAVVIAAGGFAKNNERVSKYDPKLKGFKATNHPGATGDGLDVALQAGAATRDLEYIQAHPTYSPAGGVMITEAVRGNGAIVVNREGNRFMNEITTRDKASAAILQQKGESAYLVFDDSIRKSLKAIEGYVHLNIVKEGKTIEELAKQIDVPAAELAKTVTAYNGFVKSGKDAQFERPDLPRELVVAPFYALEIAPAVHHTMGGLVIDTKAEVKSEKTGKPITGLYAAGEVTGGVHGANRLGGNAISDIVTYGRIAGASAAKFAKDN

Fcc3 = biological target: T3, Fcc3 (Shewanella oneidensis, UniProt P83223); assay: cyclic voltammetry, catalytic reduction current; conditions: 1 mM fumarate, electrons from MQ-7 via CymA, pH 7.4, 21 °C
T3 construct: gene fccA; monomer in solution; with Membrane anchored tetraheme cytochrome c CymA
T3 sequence (P83223 26-596): T2 sequence (P83223 26-596 partner)
T3 sequence (Q8E8S0 1-187 partner): T1 sequence (Q8E8S0 1-187)

CymA [3] = biological target: T1, CymA; assay: cyclic voltammetry, catalytic oxidation current with dithionite (menaquinone reduction); conditions: 1 mM dithionite, 1% (w/w) MQ-7, pH 7.4, 21 °C
CymA-Fcc3 complex [4] = biological target: T2, CymA-Fcc3 complex; assay: cyclic voltammetry, catalytic fumarate reduction current on membrane-modified gold electrode; conditions: 1 mM fumarate, 1% (w/w) MQ-7, pH 7.4, 21 °C; competitive quinol-site inhibitor

CC(C)=CCC/C(C)=C/CC/C(C)=C/CC/C(C)=C/CC/C(C)=C/CC/C(C)=C/CC/C(C)=C/CC1=C(C)C(=O)c2ccccc2C1=O [Menaquinone-7]
cyclic voltammetry, dithionite as reductant (CymA [1]): CymA is only able to reduce MQ-7 in the absence of Fcc3

CC(C)=CCC/C(C)=C/CC/C(C)=C/CC/C(C)=C/CC/C(C)=C/CC/C(C)=C/CC/C(C)=C/Cc1c(C)c(O)c2ccccc2c1O [menaquinol-7]
cyclic voltammetry, membrane-modified gold electrode, MQ-7 content varied (CymA-Fcc3 complex [2]): the CymA-Fcc3 complex is able to oxidize MQ-7 in SSMs

O=C(O)/C=C/C(=O)O [fumarate]
cyclic voltammetry, catalytic reduction current (Fcc3): addition of fumarate had a large effect on the appearance of the CV

CCCCCCCc1cc(O)c2ccccc2[n+]1[O-] [2-n-heptyl-4-hydroxyquinoline N-oxide, 2-n-Heptyl-4-hydroxyquinoline N-oxide]
inhibition at 10 μM (CymA [3]): a catalytic oxidation signal appears that is inhibited by addition of HQNO | inhibition at 10 μM (CymA-Fcc3 complex [4]): The addition of HQNO inhibited catalytic fumarate reduction (Figure 2B)
